pIC50: −log10 of the molar value.
How the values were obtained:
[1] = biological target: T1, stromelysin (MMP-3) (Homo sapiens, UniProt P08254); test: Enzymatic activity of the catalytic domain of human stromelysin (fluorogenic substrate); type: biochemical; conditions: pH=6.5, 15 min preincubation, fluorescence 328 nm (ex)/393 nm (em)
T1 construct: enzymatic activity of the catalytic domains of human stromelysin and of neutrophil collagenase; made in house
Description: (§1) Preparation and determination of the enzymatic activity of the catalytic domains of human stromelysin and of neutrophil collagenase:
(§2) The enzymes stromelysin (MMP-3) and neutrophil collagenase (MMP-8) were prepared according to Ye et al. (Biochemistry; 31 (1992) pages 11231–11235). To measure the enzyme activity or the enzyme inhibitor action, 70 μl of buffer solution and 10 μl of enzyme solution are incubated for 15 min with 10 μl of a 10% strength (v/v) aqueous dimethyl sulfoxide solution, which optionally contains the enzyme inhibitor. After addition of 10 μl of a 10% strength (v/v) aqueous dimethyl sulfoxide solution which contains 1 mmol/L of the substrate, the enzyme reaction is monitored by fluorescence spectroscopy (328 nm (ex)/393 nm(em)). The enzyme activity is shown as the extinction increase/min. The IC50 values listed in Table 2 are determined as those inhibitor concentrations which in each case led to a 50% inhibition of the enzyme.
(§3) The buffer solution contains 0.05% Brij (Sigma, Deisenhofen, Germany) and also 0.1 mol/L Tris/HCl, 0.1 mol/L NaCl, 0.01 mol/L CaCl2 and 0.1 mol/L piperazine-N,N′-bis[2-ethanesulfonic acid] (pH=6.5). The enzyme solution contains 5 μg/ml of one of the enzyme domains prepared according to Ye et al. The substrate solution contains 1 mmol/L of the fluorogenic substrate (7-methoxycoumarin-4-yl)acetyl-Pro-Leu-Gly-Leu-3-(2′,4′-dinitrophenyl)-L-2,3-diaminopropionyl-Ala-Arg-NH2 (Bachem, Heidelberg, Germany).

[2] = biological target: T2, neutrophil collagenase (MMP-8) (Homo sapiens, UniProt P22894); test: Enzymatic activity of the catalytic domain of neutrophil collagenase (fluorogenic substrate); type: biochemical; conditions: pH=6.5, 15 min preincubation, fluorescence 328 nm (ex)/393 nm (em), read-out: Neutr. collagenase IC50
T2 construct: enzymatic activity of the catalytic domains of human stromelysin and of neutrophil collagenase; made in house
Description: as §1, §2, §3

T1 sequence (P08254 100-272 limits assumed): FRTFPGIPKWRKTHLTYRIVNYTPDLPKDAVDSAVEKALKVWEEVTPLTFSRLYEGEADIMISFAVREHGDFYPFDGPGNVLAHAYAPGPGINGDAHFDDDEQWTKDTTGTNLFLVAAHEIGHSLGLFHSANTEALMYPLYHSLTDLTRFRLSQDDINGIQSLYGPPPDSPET
T2 sequence (P22894 100-262 limits assumed): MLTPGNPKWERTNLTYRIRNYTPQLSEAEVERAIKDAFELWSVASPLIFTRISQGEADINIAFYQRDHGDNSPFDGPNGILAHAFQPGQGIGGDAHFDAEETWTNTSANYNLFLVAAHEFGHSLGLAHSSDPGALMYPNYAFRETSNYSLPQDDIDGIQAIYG

Work on `CSCC[C@@H](NS(=O)(=O)c1ccc(-c2ccc(N(C)C)cc2)cc1)C(=O)O` [Example 11] yielded a pIC50 [1] of 7.05, a pIC50 [2] of 8.52 and a melting point of 180 to 186 °C.
In the case of `O=C(O)[C@@H](Cc1ccccc1)NS(=O)(=O)c1ccc(-c2ccc(C(F)(F)F)cc2)cc1` [Example 20], the pIC50 [1] was 6.40, the pIC50 [2] was 7.70 and the melting point was 159 to 162 °C.
In the case of `O=C(O)[C@@H](Cc1cccs1)NS(=O)(=O)c1ccc(-c2ccc(Cl)cc2)cc1` [Example 27], the pIC50 [1] was 6.70, the pIC50 [2] was 8.00 and the melting point was > 200 °C (dec.).
`O=C(O)[C@H](Cc1cn(S(=O)(=O)c2ccc(Oc3ccccc3)cc2)cn1)NS(=O)(=O)c1ccc(Oc2ccccc2)cc1` [Example 31] showed a pIC50 [1] of 6.00, a pIC50 [2] of 7.30 and a melting point of 120 to 122 °C.
Compound `Br.CN(C)c1ccc(-c2ccc(S(=O)(=O)N[C@@H](CC(=O)O)C(=O)O)cc2)cc1` [Example 40] has a pIC50 [1] of 7.15, a pIC50 [2] of 8.70 and a melting point of 121 to 127 °C.
With `CC(C)C[C@H](NC(=O)CC[C@H](NS(=O)(=O)c1ccc(-c2ccccc2)cc1)C(=O)O)C(=O)O` [Example 56] the pIC50 [1] was 7.52, the pIC50 [2] was 8.30 and the melting point was 93 to 95 °C.
Compound `CSCC[C@H](NC(=O)CC[C@H](NS(=O)(=O)c1ccc(-c2ccccc2)cc1)C(=O)O)C(=O)O` [Example 58] has a pIC50 [1] of 7.40, a pIC50 [2] of 8.22 and a melting point of 159 to 161 °C.
Work on `O=C(O)CC[C@H](NS(=O)(=O)c1ccc(-c2ccccc2)cc1)C(=O)O` [Example 60] yielded a pIC50 [1] of 6.22, a pIC50 [2] of 7.70 and a melting point of 145 to 146 °C.
Compound `O=C(O)CC[C@@H](NS(=O)(=O)c1ccc(-c2ccccc2)cc1)C(=O)O` [Example 61] has a pIC50 [1] of 6.40, a pIC50 [2] of 7.70 and a melting point of 155 to 158 °C.
With `CSCC[C@H](NC(=O)CC[C@H](NS(=O)(=O)c1ccc(-c2ccc(N(C)C)cc2)cc1)C(=O)O)C(=O)O` [Example 62] the pIC50 [1] was 8.15, the pIC50 [2] was 8.70 and the melting point was 121 °C.
`CN(C)c1ccc(-c2ccc(S(=O)(=O)N[C@H](Cc3c[nH]c4ccccc34)C(=O)O)cc2)cc1` [Example 66] showed a pIC50 [1] of 7.70, a pIC50 [2] of 8.70 and a melting point of 258 to 260 °C.
Compound `CSCC[C@@H](NS(=O)(=O)c1ccc(-n2nccn2)cc1)C(=O)O` [Example 67] has a pIC50 [1] of 6.00, a pIC50 [2] of 6.70 and a melting point of 155.5 to 156.5 °C.
`O=C(O)[C@@H](Cc1c[nH]c2ccccc12)NS(=O)(=O)c1ccc(-n2nccn2)cc1` [Example 68] gave a pIC50 [1] of 6.40, a pIC50 [2] of 7.00 and a melting point of 131 to 134 °C.
With `CN(C)c1ccc(-c2ccc(S(=O)(=O)N[C@@H](CCC(=O)O)C(=O)O)cc2)cc1` [Example 70] the pIC50 [1] was 7.00, the pIC50 [2] was 8.52 and the melting point was > 108 °C (dec.).
With `O=C(O)[C@@H](Cc1c[nH]c2ccccc12)NS(=O)(=O)c1ccc(-c2ccc(N3CCCC3)cc2)cc1` [Example 71] the pIC50 [1] was 8.00, the pIC50 [2] was 8.70 and the melting point was > 145 °C (dec.).
Work on `O=C(CC[C@H](NS(=O)(=O)c1ccc(-c2ccccc2)cc1)C(=O)O)Nc1ccccc1Cl` [Example 74] yielded a pIC50 [1] of 7.00, a pIC50 [2] of 8.00 and a melting point of 187.5 to 188.5 °C.
With `O=C(CC[C@H](NS(=O)(=O)c1ccc(-c2ccccc2)cc1)C(=O)O)Nc1ccc([N+](=O)[O-])cc1` [Example 75] the pIC50 [1] was 6.52, the pIC50 [2] was 7.70 and the melting point was 232 to 233 °C.
With `O=C(O)CC[C@H](NS(=O)(=O)c1ccc(-c2ccc(N3CCCC3)cc2)cc1)C(=O)O` [Example 77] the pIC50 [1] was 8.40, the pIC50 [2] was 8.40 and the melting point was > 220 °C (dec.).
`O=C(CC[C@H](NS(=O)(=O)c1ccc(-c2ccccc2)cc1)C(=O)O)Nc1ccccc1` [Example 79] gave a pIC50 [1] of 7.70, a pIC50 [2] of 8.40 and a melting point of 234.5 to 235.5 °C.
In the case of `O=C(CC[C@H](NS(=O)(=O)c1ccc(-c2ccc(N3CCCC3)cc2)cc1)C(=O)O)Nc1ccccc1` [Example 80], the pIC50 [1] was 8.15, the pIC50 [2] was 8.70 and the melting point was > 228 °C (dec.).
In the case of `CN(C)c1ccc(-c2ccc(S(=O)(=O)N[C@@H](CCC(=O)Nc3ccccc3)C(=O)O)cc2)cc1` [Example 81], the pIC50 [1] was 8.00, the pIC50 [2] was 8.70 and the melting point was 240.5 to 241.5 °C (dec.).
With `CNC(=O)c1ccc(NC(=O)CC[C@H](NS(=O)(=O)c2ccc(-c3ccccc3)cc2)C(=O)O)cc1` [Example 83] the pIC50 [1] was 6.00, the pIC50 [2] was 7.70 and the melting point was 250 to 250.5 °C.
With `COC(=O)c1ccc(NC(=O)CC[C@H](NS(=O)(=O)c2ccc(-c3ccccc3)cc2)C(=O)O)cc1` [Example 84] the pIC50 [1] was 5.30, the pIC50 [2] was 8.70 and the melting point was 245 to 245.5 °C.
Work on `O=C(CC[C@H](NS(=O)(=O)c1ccc(-c2ccccc2)cc1)C(=O)O)Nc1ccc(C(F)(F)F)cc1` [Example 85] yielded a pIC50 [1] of 5.52, a pIC50 [2] of 7.52 and a melting point of 265 °C.
Compound `N#Cc1ccc(NC(=O)CC[C@H](NS(=O)(=O)c2ccc(-c3ccccc3)cc2)C(=O)O)cc1` [Example 86] has a pIC50 [1] of 6.52, a pIC50 [2] of 8.00 and a melting point of 220 °C.
With `O=C(CC[C@H](NS(=O)(=O)c1ccc(-c2ccc(Cl)cc2)cc1)C(=O)O)Nc1ccc(F)cc1` [Example 87] the pIC50 [1] was 7.52, the pIC50 [2] was 8.30 and the melting point was > 245 °C (dec.).
For `COc1ccc(NC(=O)CC[C@H](NS(=O)(=O)c2ccc(-c3ccccc3)cc2)C(=O)O)cc1` [Example 89], the pIC50 [1] was 6.52, the pIC50 [2] was 7.70 and the melting point was 219 to 221 °C.
In the case of `O=C(CC[C@H](NS(=O)(=O)c1ccc(-c2ccc(N3CCCC3)cc2)cc1)C(=O)O)Nc1ccc(F)cc1` [Example 90], the pIC50 [1] was 8.00, the pIC50 [2] was 8.70 and the melting point was > 245 °C (dec.).
With `O=C(CC[C@H](NS(=O)(=O)c1ccc(-c2ccccc2)cc1)C(=O)O)Nc1ccc(F)cc1` [Example 91] the pIC50 [1] was 6.52, the pIC50 [2] was 8.00 and the melting point was > 258 °C (dec.).
With `O=C(CC[C@H](NS(=O)(=O)c1ccc(-c2ccccc2)cc1)C(=O)O)N[C@@H](Cc1ccccc1)C(=O)O` [Example 92] the pIC50 [1] was 7.52, the pIC50 [2] was 8.40 and the melting point was 123.5 to 124.5 °C.
In the case of `O=C(O)[C@H](CCc1nc2ccccc2[nH]1)NS(=O)(=O)c1ccc(-c2ccccc2)cc1` [Example 93], the pIC50 [1] was 6.70, the pIC50 [2] was 7.70 and the melting point was > 250 °C (dec.).
With `NC(=O)CC[C@H](NC(=O)CC[C@H](NS(=O)(=O)c1ccc(-c2ccccc2)cc1)C(=O)O)C(=O)O` [Example 95] the pIC50 [1] was 6.52, the pIC50 [2] was 7.70 and the melting point was > 110 °C (dec.).
For `O=C(CC[C@H](NS(=O)(=O)c1ccc(-c2ccccc2)cc1)C(=O)O)Nc1ccc(F)c(Cl)c1` [Example 96], the pIC50 [1] was 6.22, the pIC50 [2] was 7.70 and the melting point was > 245 °C (dec.).
With `O=C(CC[C@H](NS(=O)(=O)c1ccc(-c2ccccc2)cc1)C(=O)O)Nc1ccncc1` [Example 97] the pIC50 [1] was 6.00, the pIC50 [2] was 7.52 and the melting point was > 290 °C (dec.).
In the case of `CCN(C(=O)CC[C@H](NS(=O)(=O)c1ccc(-c2ccccc2)cc1)C(=O)O)c1ccccc1` [Example 98], the pIC50 [1] was 6.40, the pIC50 [2] was 7.52 and the melting point was > 155 °C (dec.).
For `CC(=O)Nc1ccc(NC(=O)CC[C@H](NS(=O)(=O)c2ccc(-c3ccccc3)cc2)C(=O)O)cc1` [Example 99], the pIC50 [1] was 6.15, the pIC50 [2] was 7.30 and the melting point was > 230 °C (dec.).
